From patent publication US4477659A, “Cephalosporin compound” (Asahi Kasei Kogyo Kabushiki Kaisha, priority 1981, dated 1984)
Values after ≈ are worked out from the molar mass of the structure shown.

Assays:
E. Coli NIHJ-JC2 = test: MIC (Table 4); format: cell-based; conditions: 10^8 cells/ml; unit assumed
Description: (§1) | MIC Value (10^8 cells/ml)

E. Coli W3630 ps 3 = test: MIC (Table 4); format: cell-based; conditions: 10^8 cells/ml; unit assumed
Description: as §1

E. Coli W3630 = test: MIC (Table 4); format: cell-based; conditions: 10^8 cells/ml; unit assumed
Description: as §1

[1] = test system: Klebs. pneumoniae ATCC 10031; test: MIC (Table 4); format: cell-based; conditions: 10^8 cells/ml; unit assumed
Description: as §1

[2] = test system: Salm enteritidis Gaertner; test: MIC (Table 4); format: cell-based; conditions: 10^8 cells/ml; unit assumed
Description: as §1

Staph. aureus 0003 = test: MIC (Table 4); format: cell-based; conditions: 10^8 cells/ml; unit assumed
Description: as §1

Staph. aureus ATCC 6538p = test: MIC (Table 4); format: cell-based; conditions: 10^8 cells/ml; unit assumed
Description: as §1

Staph. aureus MS 27 = test: MIC (Table 4); format: cell-based; conditions: 10^8 cells/ml; unit assumed
Description: as §1

[3] = Absorption test, oral, rats, solution in buffer pH 7 (Example 16); format: in vivo, Male Wistar rats; conditions: blood, 50 mg/kg oral, rat, average of 6, read-out: Blood Concentration of the Compound
Method: The absorption test of the compounds as obtained in Examples 1-11 were tested by the following method.
Male Wistar rats weighing 180-250 g were fed with only water overnight. The next day the rats were orally administered with 50 mg/kg of a test compound which was dissolved in a buffer solution having pH of 7. The concentration of the compound in blood of the tested animals (one group consisting of 6 animals) was measured 0.5, 1, 2 and 4 hours after the administration by Bioassay method by using Bacillus subtilis ATCC 6633 strain as an indicator bacteria. In the measurement, an ordinary culture medium was employed, and the preparation of the standard solution and other method were carried out in according to Japanese Antibiotical Pharmaceutical Standards. Further, the concentration of the compound in blood was also measured by high performance liquid chromatography. The blood concentration shown below was an average value of each animal group.

CC(=O)OCC1=C(C(=O)O)N2C(=O)[C@@H](NC(=O)CSc3nc(C[C@H](N)C(=O)O)c[nH]3)[C@H]2SC1 [Example 1, 7-β-[4-(2'-amino-2'-carboxy)ethylimidazol-2-yl-thioacetamido]-3-acetoxymethyl-3-cephem-4-carboxylic acid]
MIC Value (E. Coli NIHJ-JC2): 50 µg/mL (≈ 100 µM) | MIC Value (E. Coli W3630 ps 3): 100 µg/mL (≈ 200 µM) | MIC Value (E. Coli W3630): 100 µg/mL (≈ 200 µM) | MIC Value [1]: 25 µg/mL (≈ 50 µM) | MIC Value [2]: 100 µg/mL (≈ 200 µM) | MIC Value (Staph. aureus 0003): 12.5 µg/mL (≈ 25 µM) | MIC Value (Staph. aureus ATCC 6538p): 3.1 µg/mL (≈ 6.21 µM) | MIC Value (Staph. aureus MS 27): 12.5 µg/mL (≈ 25 µM) | concentration at 0.5 h ([3]; 0.5 hr.): 3600 ng/mL | concentration at 1 h ([3]; 1 hr.): 1600 ng/mL | concentration at 2 h ([3]; 2 hrs.): 800 ng/mL | concentration at 4 h ([3]; 4 hrs.): 500 ng/mL
